Patent publication US11180504B2 (ORCHID PHARMA LTD., priority 2016, dated 2021)
Values after ≈ are worked out from the molar mass of the structure shown.

Legend:
[1] = tested on: carbapenem sensitive Pseudomonas aeruginosa; assay: MIC by broth micro-dilution (CLSI), carbapenem sensitive P. aeruginosa; type: cell-based; conditions: Pseudomonas aeruginosa, ATCC27853, Meropenem susceptible P. aeruginosa ATCC27853; read-out: MIC
[2] = tested on: carbapenem sensitive Escherichia coli; assay: MIC by broth micro-dilution (CLSI), carbapenem sensitive E. coli; type: cell-based; conditions: Escherichia coli, ATCC25922, ESBL −ve E. coli ATCC25922; read-out: MIC
[3] = tested on: extended spectrum β lactamase (ESBL) SHV18 producing Klebsiella pneumoniae; assay: MIC by broth micro-dilution (CLSI), ESBL SHV18 producing K. pneumoniae; type: cell-based; conditions: Klebsiella pneumoniae, ATCC700603, 22 h, ESBL +ve (SHV-18) K. pneumoniae ATCC700603; read-out: MIC
[4] = tested on: methicillin-sensitive Staphylococcus aureus; assay: MIC by broth micro-dilution (CLSI), methicillin-sensitive S. aureus; type: cell-based; conditions: Staphylococcus aureus, ATCC 29213 / MSSA, MSSA S. aureus ATCC29213; read-out: MIC
[5] = tested on: carbapenemase producing K. pneumoniae; assay: MIC by broth micro-dilution (CLSI), carbapenemase producing K. pneumoniae; type: cell-based, Klebsiella pneumoniae; conditions: Klebsiella pneumoniae, ATCCBAA1705, KPC-2 K. pneumoniae ATCC BAA-1705; read-out: MIC

Row | MIC [1] [µg/mL] | MIC [2] [µg/mL] | MIC [3] [µg/mL] | MIC [4] [µg/mL] | MIC [5] [µg/mL] | Structure (SMILES)
1 | 64 (≈ 118 µM) | 2 (≈ 3.67 µM) | 64 (≈ 118 µM) | 2 (≈ 3.67 µM) | 16 (≈ 29.4 µM) | CNC[C@@H]1C[C@H](N)CN1C(=O)[C@@H]1C[C@H](SC2=C(C(=O)O)N3C(=O)[C@H]([C@@H](C)NC(=O)C(F)F)[C@H]3[C@H]2C)CN1 [Example 185]
2 | 8 (≈ 15 µM) | 0.5 (≈ 0.941 µM) | 4 (≈ 7.52 µM) | 4 (≈ 7.52 µM) | 4 (≈ 7.52 µM) | C[C@@H](NC(=O)C(F)F)[C@H]1C(=O)N2C(C(=O)O)=C(S[C@@H]3CN[C@H](C(=O)N4C[C@@H](N)C[C@H]4CO)C3)[C@H](C)[C@H]12 [Example 186]
3 | 128 (≈ 284 µM) | 2 (≈ 4.44 µM) | 8 (≈ 17.8 µM) | 4 (≈ 8.88 µM) | 64 (≈ 142 µM) | C[C@@H](Oc1ccon1)[C@H]1C(=O)N2C(C(=O)O)=C(S[C@@H]3CN[C@H](C(=O)N(C)C)C3)[C@H](C)[C@H]12 [Example 187]
4 | 16 (≈ 33.3 µM) | 4 (≈ 8.32 µM) | 32 (≈ 66.6 µM) | > 128 | 8 (≈ 16.6 µM) | CNCC(=O)N[C@H](C)[C@H]1C(=O)N2C(C(=O)O)=C(S[C@@H]3CN[C@H](C(=O)N4CC(N)C4)C3)[C@H](C)[C@H]12 [Example 189]
5 | 4 (≈ 7.86 µM) | 2 (≈ 3.93 µM) | 16 (≈ 31.5 µM) | 64 (≈ 126 µM) | 4 (≈ 7.86 µM) | CNCC(=O)N[C@H](C)[C@H]1C(=O)N2C(C(=O)O)=C(S[C@@H]3CN[C@H](C(=O)N4CCC(N)CC4)C3)[C@H](C)[C@H]12 [Example 190]
6 | 32 (≈ 61.1 µM) | 8 (≈ 15.3 µM) | 32 (≈ 61.1 µM) | 64 (≈ 122 µM) | 8 (≈ 15.3 µM) | CNCC(=O)N[C@H](C)[C@H]1C(=O)N2C(C(=O)O)=C(S[C@@H]3CN[C@H](C(=O)N4C[C@@H](N)C[C@H]4CN)C3)[C@H](C)[C@H]12 [Example 191]
7 | 4 (≈ 8.07 µM) | 1 (≈ 2.02 µM) | 2 (≈ 4.04 µM) | 64 (≈ 129 µM) | 2 (≈ 4.04 µM) | CNCC(=O)N[C@H](C)[C@H]1C(=O)N2C(C(=O)O)=C(S[C@@H]3CN[C@H](C(=O)N4CC[C@@H](O)C4)C3)[C@H](C)[C@H]12 [Example 192]
8 | 8 (≈ 14.1 µM) | 4 (≈ 7.07 µM) | 8 (≈ 14.1 µM) | 64 (≈ 113 µM) | 4 (≈ 7.07 µM) | CNCC(=O)N[C@H](C)[C@H]1C(=O)N2C(C(=O)O)=C(S[C@@H]3CN[C@H](C(=O)N4CCC(NC(=O)CN)CC4)C3)[C@H](C)[C@H]12 [Example 193]

Continued, compound first:

Row | Structure (SMILES) | MIC [1] [µg/mL] | MIC [2] [µg/mL] | MIC [3] [µg/mL] | MIC [4] [µg/mL] | MIC [5] [µg/mL]
9 | CNCC(=O)N[C@H](C)[C@H]1C(=O)N2C(C(=O)O)=C(S[C@@H]3CN[C@H](CNS(N)(=O)=O)C3)[C@H](C)[C@H]12 [Example 169] | 4 (≈ 8.15 µM) | 1 (≈ 2.04 µM) | 16 (≈ 32.6 µM) | 8 (≈ 16.3 µM) | 2 (≈ 4.08 µM)
10 | C[C@@H](NC(=O)C(F)F)[C@H]1C(=O)N2C(C(=O)O)=C(S[C@@H]3CN[C@H](C(=O)N4CC[C@H](NC5CC5)C4)C3)[C@H](C)[C@H]12 [Example 170] | 32 (≈ 59.1 µM) | 1 (≈ 1.85 µM) | 4 (≈ 7.39 µM) | 2 (≈ 3.69 µM) | 8 (≈ 14.8 µM)
11 | CNCCN(CC#N)C(=O)[C@@H]1C[C@H](SC2=C(C(=O)O)N3C(=O)[C@H]([C@@H](C)NC(=O)C(F)F)[C@H]3[C@H]2C)CN1 [Example 171] | > 128 | 4 (≈ 7.57 µM) | 128 (≈ 242 µM) | 2 (≈ 3.78 µM) | 128 (≈ 242 µM)
12 | C[C@@H](NC(=O)C(F)F)[C@H]1C(=O)N2C(C(=O)O)=C(S[C@@H]3CN[C@H](C(=O)N(C)[C@@H]4CN[C@H](C(=O)N(C)C)C4)C3)[C@H](C)[C@H]12 [Example 172] | 64 (≈ 109 µM) | 1 (≈ 1.7 µM) | 8 (≈ 13.6 µM) | 4 (≈ 6.82 µM) | 8 (≈ 13.6 µM)
13 | C[C@@H](NC(=O)C(F)F)[C@H]1C(=O)N2C(C(=O)O)=C(S[C@@H]3CN[C@H](C(=O)N(C)CCC(=O)N4CC[C@H](N)C4)C3)[C@H](C)[C@H]12 [Example 173] | 16 (≈ 27.3 µM) | 2 (≈ 3.41 µM) | 16 (≈ 27.3 µM) | 4 (≈ 6.82 µM) | 8 (≈ 13.6 µM)
14 | C[C@@H](NC(=O)C(F)F)[C@H]1C(=O)N2C(C(=O)O)=C(S[C@@H]3CN[C@H](C(=O)N(C)CCC(=O)N4CCCNCC4)C3)[C@H](C)[C@H]12 [Example 174] | 32 (≈ 53.3 µM) | 2 (≈ 3.33 µM) | 16 (≈ 26.6 µM) | 4 (≈ 6.66 µM) | 8 (≈ 13.3 µM)
15 | C[C@@H](NC(=O)C(F)F)[C@H]1C(=O)N2C(C(=O)O)=C(S[C@@H]3CN[C@H](C(=O)N4CC[C@H](NCC#N)C4)C3)[C@H](C)[C@H]12 [Example 175] | 16 (≈ 29.6 µM) | 1 (≈ 1.85 µM) | 2 (≈ 3.7 µM) | 2 (≈ 3.7 µM) | 4 (≈ 7.4 µM)
16 | C[C@@H](NC(=O)C(F)F)[C@H]1C(=O)N2C(C(=O)O)=C(S[C@@H]3CN[C@H](C(=O)N4CC[C@H](n5cc(CN)nn5)C4)C3)[C@H](C)[C@H]12 [Example 176] | 8 (≈ 13.7 µM) | 1 (≈ 1.72 µM) | 4 (≈ 6.87 µM) | 2 (≈ 3.43 µM) | 8 (≈ 13.7 µM)
17 | C[C@H]([C@H]1C(=O)N2C(C(=O)O)=C(SC3CN[C@H](C(=O)N(C)C)C3)[C@H](C)[C@H]12)n1cc(CN)nn1 (stereo partly drawn) [Example 177] | 32 (≈ 69 µM) | 2 (≈ 4.31 µM) | 2 (≈ 4.31 µM) | 8 (≈ 17.3 µM) | 2 (≈ 4.31 µM)
18 | CNCC(=O)N[C@H](C)[C@H]1C(=O)N2C(C(=O)O)=C(S[C@@H]3CN[C@H](C(=O)N4CC[C@H](n5cc(CN)nn5)C4)C3)[C@H](C)[C@H]12 [Example 178] | 4 (≈ 6.95 µM) | 2 (≈ 3.47 µM) | 4 (≈ 6.95 µM) | 32 (≈ 55.6 µM) | 4 (≈ 6.95 µM)
19 | CNCC(=O)N[C@H](C)[C@H]1C(=O)N2C(C(=O)O)=C(S[C@@H]3CN[C@H](C(=O)N4CC[C@@H](NC)C4)C3)[C@H](C)[C@H]12 [Example 179] | 16 (≈ 31.5 µM) | 2 (≈ 3.93 µM) | 16 (≈ 31.5 µM) | 128 (≈ 252 µM) | 8 (≈ 15.7 µM)
20 | C[C@@H](NC(=O)CN(C)C)[C@H]1C(=O)N2C(C(=O)O)=C(S[C@@H]3CN[C@H](C(=O)N4CC[C@@H](N)C4)C3)[C@H](C)[C@H]12 [Example 180] | 16 (≈ 31.5 µM) | 4 (≈ 7.86 µM) | 32 (≈ 62.9 µM) | 128 (≈ 252 µM) | 32 (≈ 62.9 µM)
21 | CNCC(=O)N[C@H](C)[C@H]1C(=O)N2C(C(=O)O)=C(S[C@@H]3CN[C@H](Cn4cc(CN)nn4)C3)[C@H](C)[C@H]12 [Example 181] | 128 (≈ 260 µM) | 8 (≈ 16.2 µM) | > 128 | > 128 | 64 (≈ 130 µM)
22 | C[C@@H](NC(=O)CN(C)C)[C@H]1C(=O)N2C(C(=O)O)=C(S[C@@H]3CN[C@H](C(=O)N4CCNCC4)C3)[C@H](C)[C@H]12 [Example 182] | 8 (≈ 15.7 µM) | 8 (≈ 15.7 µM) | 16 (≈ 31.5 µM) | 128 (≈ 252 µM) | 16 (≈ 31.5 µM)
23 | C[C@@H](NC(=O)C(F)F)[C@H]1C(=O)N2C(C(=O)O)=C(S[C@@H]3CN[C@H](C(=O)N4C[C@@H](N)C[C@H]4CN)C3)[C@H](C)[C@H]12 [Example 183] | 64 (≈ 121 µM) | 2 (≈ 3.77 µM) | 32 (≈ 60.3 µM) | 8 (≈ 15.1 µM) | 16 (≈ 30.2 µM)
24 | C[C@@H](NC(=O)C(F)F)[C@H]1C(=O)N2C(C(=O)O)=C(S[C@@H]3CN[C@H](C(=O)N4CC[C@H](NC=N)C4)C3)[C@H](C)[C@H]12 [Example 184] | 4 (≈ 7.57 µM) | 0.5 (≈ 0.946 µM) | 4 (≈ 7.57 µM) | 2 (≈ 3.78 µM) | 8 (≈ 15.1 µM)
